Read-outs that look alike come from different tables or passages of the source.
Experiments:
[1] = system: cells from the thymus of normal BALB/c mice (lymphocyte proliferation); assay: comitogen-induced thymocyte proliferation procedure (LAF); format: cell-based; details: Mus musculus; for inhibition at 0.1 µM: read-out: LAF percent inhibition at 100 nM
Description: (§1) Immunosuppressive activity was evaluated in an in vitro standard pharmacological test procedure to measure lymphocyte proliferation (LAF) and in two in vivo standard pharmacological test procedures. The first in vivo procedure was a popliteal lymph node (PLN) test procedure which measured the effect of compounds of this invention on a mixed lymphocyte reaction and the second in vivo procedure evaluated the survival time of a pinch skin graft.
Briefly, cells from the thymus of normal BALB/c mice are cultured for 72 hours with PHA and IL-1 and pulsed with tritiated thymidine during the last six hours. […] Cells are harvested and incorporated; radioactivity is determined. Inhibition of lymphoproliferation is assessed in percent change in counts per minute from non-drug treated controls. The results are expressed as the IC50, expressed in nM, or as the percent inhibition at 100 nM.

[2] = system: popliteal lymph nodes (mixed lymphocyte reaction); assay: in vivo popliteal lymph node (PLN) test procedure (mixed lymphocyte reaction); design: species or system C3H mice (BALB/c donors)
Description: as §1
A mixed lymphocyte reaction (MLR) occurs when lymphoid cells from genetically distinct animals are combined in tissue culture. Each stimulates the other to undergo blast transformation which results in increased DNA synthesis that can be quantified by the incorporation of tritiated thymidine. Since stimulating a MLR is a function of disparity at Major Histocompatibility antigens, an in vivo popliteal lymph node (PLN) test procedure closely correlates to host vs. graft disease. Briefly, irradiated spleen cells from BALB/c donors are injected into the right hind foot pad of recipient C3H mice. […] On Day 3 and Day 4, tritiated thymidine is given i.p., b.i.d. On Day 5, the hind popliteal lymph nodes are removed and dissolved, and radioactivity counted. The corresponding left PLN serves as the control for the PLN from the injected hind foot. Percent suppression is calculated using the non-drug treated animals as allogenic control. […]

pinch skin graft = assay: survival time of pinch skin graft; format: in vivo, male BALB/c mice recipients (male DBA/2 donors); details: intraperitoneally
Description: as §1
The second in vivo test procedure is designed to determine the survival time of pinch skin graft from male DBA/2 donors transplanted to male BALB/c recipients. The method is adapted from Billingham R. E. and Medawar P. B., J. Exp. Biol. 28: 385-402, (1951). Briefly, a pinch skin graft from the donor is grafted on the dorsum of the recipient as a homograft, and an autograft is used as control in the same region. […] Untreated recipients serve as rejection control. The graft is monitored daily and observations are recorded until the graft becomes dry and forms a blackened scab. This is considered as the rejection day. The mean graft survival time (number of days±S.D.) of the drug treatment group is compared with the control group.

Candida albicans [3] = details: cited from earlier work
Candida albicans [4] = details: cited from earlier work; remark: listed apart in the source
organ grafts = details: histoincompatible rodents; cited from earlier work
[5] = thymocytes, PHA and IL-1, 72 hours, tritiated thymidine, read-out: LAF IC50

Compound	IC50 [1, 5] [nM]	PLN (ratio) ([2]; i.p. daily Day 0 to Day 4, ratio as defined)	inhibition at 0.1 µM [1] [%]	Skin Graft (days ± SD), mean graft survival time (pinch skin graft) [days]	IC50 ([1]; read-out: LAF IC50 of rapamycin as a control for Example 1) [nM]	PLN suppression ([2]; 6 mg/kg, p.o.) [%]	antifungal activity in vitro (Candida albicans [3])	antifungal activity in vivo (Candida albicans [4])	prolongation of survival time of organ grafts (organ grafts)
COc1c2n[nH]c1[C@H](C)C[C@H](C)/C=C/C=C/C=C(\C)[C@@H](OC)C[C@@H]1CC[C@@H](C)[C@@](O)(O1)C(=O)C(=O)N1CCCC[C@H]1C(=O)O[C@H]([C@H](C)C[C@@H]1CC[C@@H](O)[C@H](OC)C1)CC(=O)[C@H](C)/C=C/2C [Example 3, 33-Deoxo-31-deoxy-31,33-(1-hydrazinyl-2-ylidene)rapamycin]	205	0.52	–	–	–	–	–	–	–
CO[C@@H]1C(=O)/C(C)=C/[C@@H](C)C(=O)C[C@@H]([C@H](C)C[C@@H]2CC[C@@H](O)[C@H](OC)C2)OC(=O)[C@@H]2CCCCN2C(=O)C(=O)[C@]2(O)O[C@@H](CC[C@H]2C)C[C@H](OC)/C(C)=C/C=C/C=C/[C@@H](C)C[C@@H](C)C1=O [Example 1, 31-Deoxy-31-oxorapamycin]	84.9	–	41	9.16 ± 0.47	–	–	–	–	–
CO[C@@H]1C(=O)/C(C)=C/[C@@H](C)C(=O)C[C@@H]([C@H](C)C[C@@H]2CCC(=O)[C@H](OC)C2)OC(=O)[C@@H]2CCCCN2C(=O)C(=O)[C@]2(O)O[C@@H](CC[C@H]2C)C[C@H](OC)/C(C)=C/C=C/C=C/[C@@H](C)C[C@@H](C)C1=O [Example 2, 31,42-Dideoxy-31,42-dioxorapamycin]	–	–	4	–	–	–	–	–	–
CO[C@H]1C[C@@H]2CC[C@@H](C)[C@@](O)(O2)C(=O)C(=O)N2CCCC[C@H]2C(=O)O[C@H]([C@H](C)C[C@@H]2CC[C@@H](O)[C@H](OC)C2)CC(=O)[C@H](C)/C=C(\C)[C@@H](O)[C@@H](OC)C(=O)[C@H](C)C[C@H](C)/C=C/C=C/C=C/1C [Rapamycin, rapamycin]	–	–	94	11.66 ± 0.47	0.2	86	antifungal activity	antifungal activity	prolong survival time
